The subject of test [1] is cultured human mast cells (CHMC). The experiment in a line: CHMC low cell density ionomycin activation: tryptase assay. Type of test: cell-based.
Test [2] shares this test system. The experiment in a line: CHMC low cell density IgE activation: tryptase assay. Type of test: cell-based. To be noted: anti-IgE. Summed up: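 Low-density CHMC assay: donor-adjusted 1000-1500 cells/well, MT buffer, 1 hr 37° C preincubation; anti-IgE stimulus 30 min 37° C versus MT-only controls; supernatant tryptase by substrate, 30 min RT.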

pIC50: −log10 of the molar value. Structures can show the parent of a compound that is named as a salt.

What is called pIC50 is −log10 of the IC50, conventionally taken in molar units. As to `CNC(=O)COc1cccc(Nc2nc(Nc3cc(OC)cc(OC)c3)ncc2F)c1` [R926810, N2-(3,5-Dimethoxyphenyl)-N4-[3-(N-methylamino)carbonylmethyleneoxyphenyl)-5-fluoro-2,4-pyrimidinediamine], the pIC50 was < 5.00 in test [1] and 5.91 in test [2].

`O=C(COc1cccc(Nc2ncc(F)c(Nc3ccc4c(c3)OCCO4)n2)c1)NCCOC(=O)CCCCC1SCC2NC(=O)NC21` (stereo not drawn) [R926811, N4-(3,4-Ethylenedioxyphenyl)-5-fluoro-N2-[3-[N-2-(D)-(+)-biotinylethylamino]carbonylmethyleneoxyphenyl]-2,4-pyrimidinediamine]: the results for the pIC50 in test [1] and in test [2] were < 5.00 and 5.44, respectively.

`CNC(=O)COc1cccc(Nc2ncc(F)c(Nc3ccc(-n4cnc(Cl)c4Cl)cc3)n2)c1` [R926812, N4-[4-(4,5-Dichloro-1H-imidazol-1-ylphenyl)]-5-fluoro-N2-[3-(N-methylamino)carbonylmethyleneoxyphenyl]-2,4-pyrimidinediamine]: the pIC50 in test [1] was < 5.00; in test [2], 6.73.

As for `CNC(=O)c1cc2cccc(Nc3ncc(F)c(Nc4ccc5c(c4)OCCO5)n3)c2[nH]1` [R926815], the pIC50 in test [1] was < 5.00; in test [2], 5.93.

Take `CNC(=O)COc1cccc(Nc2ncc(F)c(Nc3ccc4c(c3)OCCO4)n2)c1` [R926826, N4-(3,4-Ethylenedioxyphenyl)-5-fluoro-N2-[3-(N-methylamino)carbonylmethyleneoxyphenyl]-2,4-pyrimidinediamine Trifluoro Acetic Acid Salt]: the pIC50 in test [1] (Acetic Acid Salt) is < 5.00; in test [2], 6.21.

With `CCOc1ccc(Nc2nc(Nc3cccc(OCC(=O)NC)c3)ncc2F)cc1` [R926827, N4-(4-Ethoxyphenyl)-5-fluoro-N2-[3-(N-methylamino)carbonylmethyleneoxyphenyl]-2,4-pyrimidinediamine], the pIC50 in test [1] is < 5.00; in test [2], 5.96.

In the case of `CNC(=O)COc1cc(Nc2ncc(F)c(Nc3ccc4c(c3)OCCO4)n2)ccc1OC` [R926828, N4-(3,4-Ethylenedioxyphenyl)-5-fluoro-N2-[4-methoxy-3-(N-methylamino)carbonylmethyleneoxyphenyl]-2,4-pyrimidinediamine], the pIC50 in test [1] was < 5.00; in test [2], 6.51.

With `CNC(=O)COc1cc(Nc2ncc(F)c(Nc3cccc(O)c3)n2)ccc1OC` [R926829, 5-Fluoro-N4-(3-hydroxyphenyl)-N2-[4-methoxy-3-(N-methylamino)carbonylmethyleneoxyphenyl]-2,4-pyrimidinediamine], the pIC50 in test [1] was < 5.00; in test [2] it was 6.16.

In the case of `CNC(=O)COc1cccc(Nc2ncc(F)c(Nc3cccc(Cl)c3)n2)c1` [R926832, N4-(3-Chlorophenyl)-5-fluoro-N2-[3-(N-methylamino)carbonylmethyleneoxyphenyl]-2,4-pyrimidinediamine], the values for the pIC50 in test [1] and in test [2] were < 5.00 and 6.44, respectively.

On to `CNC(=O)COc1cccc(Nc2ncc(F)c(Nc3cc(OC)cc(C(F)(F)F)c3)n2)c1` [R926833, 5-Fluoro-N4-(3-methoxy-5-trifluoromethylphenyl)-N2-[3-(N-methylamino)carbonylmethyleneoxyphenyl]-2,4-pyrimidinediamine], for which the pIC50 in test [1] is < 5.00; in test [2] it was 5.95.

`CNC(=O)COc1cccc(Nc2ncc(F)c(Nc3ccc(OC)c(O)c3)n2)c1` [R926834, 5-Fluoro-N4-(3-hydroxy-4-methoxyphenyl)-N2-[3-(N-methylamino)carbonylmethyleneoxyphenyl]-2,4-pyrimidinediamine]: the pIC50 in test [1] was < 5.00; in test [2], 6.84.

In the case of `CNC(=O)COc1cccc(Nc2ncc(F)c(Nc3ccc(OC)c(C(F)(F)F)c3)n2)c1` [R926835, 5-Fluoro-N4-(4-methoxy-3-trifluoromethylphenyl)-N2-[3-(N-methylamino)carbonylmethyleneoxyphenyl]-2,4-pyrimidinediamine], the results for the pIC50 in test [1] and in test [2] were < 5.00 and 6.53, respectively.

For the compound `OB(O)c1cccc(Nc2ncc(F)c(Nc3cccc(B(O)O)c3)n2)c1` [R926836, N2,N4-Bis(3-boronylphenyl)-5-fluoro-2,4-pyrimidinediamine], the pIC50 in test [1] is < 5.00; in test [2] it was 5.00.

`OB(O)c1cccc(Nc2ncc(F)c(Nc3ccc4c(c3)OCCO4)n2)c1` [R926837, N2-(3-Boronylphenyl)-N4-(3,4-ethylenedioxyphenyl)-5-fluoro-2,4-pyrimidinediamine]: the pIC50 in test [1] is < 5.00; in test [2] it was 5.52.

For the compound `CNC(=O)COc1cccc(Nc2ncc(F)c(Nc3ccc(F)c(C(F)(F)F)c3)n2)c1` [R926838, 5-Fluoro-N4-(4-fluoro-3-trifluoromethylphenyl)-N2-[3-(N-methylamino)carbonylmethyleneoxyphenyl]-2,4-pyrimidinediamine], the pIC50 in test [1] was < 5.00; in test [2], 6.23.

As for `CNC(=O)COc1cccc(Nc2ncc(F)c(Nc3ccc(C)c(Cl)c3)n2)c1` [R926839, N4-(3-Chloro-4-methylphenyl)-5-fluoro-N2-[3-(N-methylamino)carbonylmethyleneoxyphenyl]-2,4-pyrimidinediamine], the pIC50 in test [1] was < 5.00; in test [2] it was 6.79.

Regarding `CNC(=O)COc1cccc(Nc2ncc(F)c(Nc3cc(C)ccc3Cl)n2)c1` [R926840, N4-(2-Chloro-5-methylphenyl)-5-fluoro-N2-[3-(N-methylamino)carbonylmethyleneoxyphenyl]-2,4-pyrimidinediamine], the pIC50 in test [1] is < 5.00; in test [2], 5.96.

As for `Oc1cccc(Nc2nc(Nc3ccc(C(F)(F)F)c(Cl)c3)ncc2F)c1` [R926844, N2-(3-Chloro-4-trifluoromethylphenyl)-5-fluoro-N4-(3-hydroxyphenyl)-2,4-pyrimidinedimine], the figures for the pIC50 in test [1] and in test [2] were < 5.00 and 5.96, respectively.

`Oc1cccc(Nc2nc(Nc3cc(Br)cc(C(F)(F)F)c3)ncc2F)c1` [R926846, N2-(3-Bromo-5-trifluorophenyl)-5-fluoro-N4-(3-hydroxyphenyl)-2,4-pyrimidinediamine]: the pIC50 in test [1] is 5.20; in test [2], 6.07.

Turning to `NC(=O)Cn1c(=O)oc2ccc(Nc3ncc(F)c(Nc4ccc5c(c4)OCCO5)n3)cc21` [R926847, N2-[5-(N-Aminocarbonylmethylene-2-oxo-1,3-oxazol-3(2H)-yl)phenyl]-N4-(3,4-ethylenedioxyphenyl)-5-fluoro-2,4-pyrimidinediamine], the pIC50 in test [1] was 5.20; in test [2], 5.83.

Regarding `CNC(=O)COc1cccc(Nc2ncc(F)c(Nc3cccc(-c4nnn[nH]4)c3)n2)c1` [R926855, 5-Fluoro-N2-[3-(N-methylamino)carbonylmethyleneoxyphenyl]-N4-[3-(tetrazol-5-yl)phenyl]-2,4-pyrimidinediamine], the pIC50 in test [1] and in test [2] was < 5.00 each time.

Consider `CNC(=O)COc1cccc(Nc2ncc(F)c(Nc3cc(C(=O)OC)cc(C(F)(F)F)c3)n2)c1` [R926862, 5-Fluoro-N2-[3-(N-methylamino)carbonylmethyleneoxyphenyl]-N4-(3-methoxycarbonyl-5-trifluoromethylphenyl)-2,4-pyrimidinediamine], for which the pIC50 in test [1] is < 5.00; in test [2], 6.11.

For `CCOC(=O)Cc1nnc(-c2cccc(Nc3ncc(F)c(Nc4cccc(O)c4)n3)c2)o1` [R926874], the values for the negative logarithm of the IC50 (pIC50) in test [1] and in test [2] were < 5.00 and 6.20, respectively.

Take `CNC(=O)COc1cccc(Nc2ncc(F)c(Nc3ccc(OC(F)(F)F)cc3)n2)c1` [R926879, 5-Fluoro-N2-[3-(N-methylamino)carbonylmethyleneoxyphenyl]-N4-[4-trifluoromethoxyphenyl]-2,4-pyrimidinediamine]: the negative-log IC50 (pIC50) was < 5.00 in test [1] and 6.40 in test [2].

With `CNC(=O)COc1cccc(Nc2ncc(F)c(Nc3ccc(Cl)c(-c4nc5ccccc5s4)c3)n2)c1` [R926900, N4-[3-(Benzothiazol-2-yl)-4-chlorophenyl]-5-fluoro-N2-[3-[(N-methylamino)carbonylmethyleneoxy]phenyl)-2,4-pyrimidinediamine], the pIC50 in test [1] and in test [2] was < 5.00 throughout.

In the case of `CNC(=O)COc1cccc(Nc2ncc(F)c(Nc3ccc(C)c(OC)c3)n2)c1` [R926902, 5-Fluoro-N2-[3-[(N-methylamino)carbonylmethyleneoxy]phenyl]-N4-(3-methoxy-4-methylphenyl)-2,4-pyrimidinediamine], the pIC50 in test [1] was 5.34; in test [2], 5.86.

For the compound `COC(=O)c1cc2ccc(Nc3ncc(F)c(Nc4cccc(O)c4)n3)cc2[nH]1` [R926903], the pIC50 in test [1] was < 5.00; in test [2] it was 6.61.

As to `CNC(=O)COc1cccc(Nc2ncc(F)c(Nc3ccc4c(c3)CNCC4)n2)c1` [R926914, 5-Fluoro-N4-(1,2,3,4-tetrahydroisoquin-7-yl)-N2-[3-[(N-methylamino)carbonylmethyleneoxy]phenyl]-2,4-pyrimidinediamine], the pIC50 in test [1] is < 5.00; in test [2] it was 5.73.

With `CNC(=O)C(C)(C)Oc1cccc(Nc2ncc(F)c(Nc3ccc4c(c3)OCCO4)n2)c1` [R926915, N4-(3,4-Ethylenedioxyphenyl)-5-fluoro-N2-[3-[(N-methylamino)carbonyl-1,1-dimethylmethyleneoxy]phenyl]-2,4-pyrimidinediamine], the pIC50 in test [1] was < 5.00; in test [2], 5.77.

For `CNC(=O)COc1cccc(Nc2ncc(F)c(Nc3cccc(OC(=O)N(C(=O)NC(C)C)C(C)C)c3)n2)c1` [R926916], the results for the pIC50 in test [1] and in test [2] were < 5.00 and 5.71, respectively.

`C=CCNC(=O)Oc1cccc(Nc2nc(Nc3cccc(OCC(=O)NC)c3)ncc2F)c1` [R926917, 5-Fluoro-N4-[3-[(N-allylamino)carbonyloxy]phenyl]-N2-[3-[(N-methylamino)carbonylmethyleneoxy]phenyl]-2,4-pyrimidinediamine]: the pIC50 is < 5.00 in test [1] and 5.93 in test [2].

For the origin of these results see US9499493B2, “2,4-pyrimidinediamine compounds and their uses” (Rigel Pharmaceuticals, Inc., priority 2002, dated 2016).
